Data reported in patent US9302999B2, “Substituted triazoles as herbicides” (E. I. DU PONT DE NEMOURS AND COMPANY, priority 2012, dated 2016).

What was measured:
Format in all cases: in vivo
[1] = system: crabgrass, large (large crabgrass, Digitaria sanguinalis); assay: Test A pre-/postemergence: crabgrass, large
Method in brief: (§1)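 Seeds were sown in loam/sand blend and sprayed preemergence (directed soil spray) and, simultaneously, postemergence at 2–10 cm, one- to two-leaf stage, using compounds in non-phytotoxic solvent with surfactant. After ~10 days in greenhouse, injury was rated visually versus untreated controls, 0 (no effect) to 100 (complete control).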

[2] = system: foxtail, giant (giant foxtail, Setaria faberii); assay: Test A pre-/postemergence: foxtail, giant
Method in brief: as §1

[3] = system: velvetleaf (Abutilon theophrasti); assay: Test A pre-/postemergence: velvetleaf
Method in brief: as §1

[4] = system: blackgrass (Alopecurus myosuroides); assay: Test C pre-/postemergence: blackgrass
Method in brief: (§2)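 Visual injury scored 0–100 (100 = complete control) against untreated controls after 13–15 greenhouse days. Surfactant-containing solvent formulations applied either to soil after sowing (loam/sand) or over 1- to 4-leaf plants, 2–18 cm tall.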

[5] = system: winter wheat (Triticum aestivum); assay: Test C pre-/postemergence: winter wheat
Method in brief: as §2

[6] = system: galium (catchweed bedstraw, Galium aparine); assay: Test C pre-/postemergence: galium
Method in brief: as §2

[7] = system: foxtail, giant (giant foxtail, Setaria faberii); assay: Test C pre-/postemergence: foxtail, giant
Method in brief: as §2

[8] = system: lambsquarters (Chenopodium album); assay: Test C pre-/postemergence: lambsquarters
Method in brief: as §2

[9] = system: nutsedge, yellow (yellow nutsedge, Cyperus esculentus); assay: Test C pre-/postemergence: nutsedge, yellow
Method in brief: as §2

[10] = system: pigweed (Amaranthus retroflexus); assay: Test C pre-/postemergence: pigweed
Method in brief: as §2

soybean (Glycine max) = assay: Test C pre-/postemergence: soybean
Method in brief: as §2

[11] = system: velvetleaf (Abutilon theophrasti); assay: Test C pre-/postemergence: velvetleaf
Method in brief: as §2

[12] = Postemergence, 125 g ai/ha, 0 to 100 scale, 0 is no effect, 100 is complete control
[13] = Postemergence, 500 g ai/ha, 0 to 100 scale, 0 is no effect, 100 is complete control
[14] = Preemergence, 125 g ai/ha, 0 to 100 scale where 0 is no effect and 100 is complete control
[15] = Preemergence, 500 g ai/ha, 0 to 100 scale (0 no effect, 100 complete control)
[16] = Postemergence, 31 g ai/ha, scale 0 to 100 (0 no effect, 100 complete control)
[17] = Postemergence, 62 g ai/ha, scale 0 to 100 (0 no effect, 100 complete control)
[18] = Postemergence, 125 g ai/ha, scale 0 to 100, 0 no effect, 100 complete control
[19] = Postemergence, 250 g ai/ha, scale 0 to 100
[20] = Preemergence, 31 g ai/ha, scale 0 (no effect) to 100 (complete control)
[21] = Preemergence, 62 g ai/ha, scale of 0 to 100, 0 is no effect, 100 is complete control
[22] = Preemergence, 125 g ai/ha, scale 0 to 100, 0 no effect, 100 complete control
[23] = Preemergence, 250 g ai/ha, scale 0 to 100, 0 no effect, 100 complete control
[24] = Postemergence, 250 g ai/ha, scale 0 to 100 (0 no effect, 100 complete control)
[25] = Preemergence, 16 g ai/ha, scale 0 (no effect) to 100 (complete control)

SMILES: CCCc1nn(-c2ccc(C(F)(F)F)c(F)c2)nc1Oc1ccnc(C(F)(F)F)c1 [Compound 185]
- Plant response rating, Crabgrass, Large [1, 12]: 90
- Crabgrass, Large plant response rating [1, 13]: 90
- Plant response rating, Crabgrass, Large [1, 14]: 100
- Plant response rating, Crabgrass, Large [1, 15]: 100
- Plant response rating, Foxtail, Giant [2, 12]: 90
- Foxtail, Giant plant response rating [2, 13]: 90
- Plant response rating, Foxtail, Giant [2, 14]: 100
- Plant response rating, Foxtail, Giant [2, 15]: 100
- Plant response rating, Velvetleaf [3, 12]: 100
- Velvetleaf plant response rating [3, 13]: 100
- Plant response rating, Velvetleaf [3, 14]: 90
- Plant response rating, Velvetleaf [3, 15]: 100
- Plant response rating, Blackgrass [4, 16]: 20
- Plant response rating, Blackgrass [4, 17]: 40
- Plant response rating, Blackgrass [4, 18]: 50
- Plant response rating, Blackgrass [4, 19]: 50
- Plant response rating, Blackgrass [4, 20]: 90
- Plant response rating, Blackgrass [4, 21]: 95
- Plant response rating, Blackgrass [4, 22]: 95
- Plant response rating, Blackgrass [4, 23]: 98
- Plant response rating, Wheat [5, 16]: 5
- Plant response rating, Wheat [5, 17]: 15
- Plant response rating, Wheat [5, 18]: 15
- Plant response rating, Wheat [5, 24]: 20
- Plant response rating, Wheat [5, 20]: 10
- Plant response rating, Wheat [5, 21]: 40
- Plant response rating, Wheat [5, 22]: 40
- Plant response rating, Wheat [5, 23]: 55
- Plant response rating, Galium [6, 16]: 70
- Plant response rating, Galium [6, 17]: 80
- Plant response rating, Galium [6, 18]: 90
- Plant response rating, Galium [6, 24]: 90
- Plant response rating, Galium [6, 20]: 80
- Plant response rating, Galium [6, 21]: 100
- Plant response rating, Galium [6, 22]: 100
- Plant response rating, Galium [6, 23]: 100
- Plant response rating, Foxtail, Giant [7, 16]: 40
- Plant response rating, Foxtail, Giant [7, 17]: 80
- Plant response rating, Foxtail, Giant [7, 18]: 90
- Plant response rating, Foxtail, Giant [7, 19]: 98
- Plant response rating, Foxtail, Giant [7, 20]: 100
- Plant response rating, Foxtail, Giant [7, 21]: 100
- Plant response rating, Foxtail, Giant [7, 22]: 100
- Plant response rating, Foxtail, Giant [7, 23]: 100
- Plant response rating, Lambsquarters [8, 16]: 80
- Plant response rating, Lambsquarters [8, 17]: 80
- Plant response rating, Lambsquarters [8, 18]: 85
- Plant response rating, Lambsquarters [8, 24]: 95
- Plant response rating, Lambsquarters [8, 20]: 100
- Plant response rating, Lambsquarters [8, 21]: 100
- Plant response rating, Lambsquarters [8, 22]: 100
- Plant response rating, Lambsquarters [8, 23]: 100
- Plant response rating, Nutsedge, Yellow [9, 16]: 10
- Plant response rating, Nutsedge, Yellow [9, 17]: 10
- Plant response rating, Nutsedge, Yellow [9, 18]: 10
- Plant response rating, Nutsedge, Yellow [9, 24]: 15
- Plant response rating, Nutsedge, Yellow [9, 20]: 0
- Plant response rating, Nutsedge, Yellow [9, 21]: 0
- Plant response rating, Nutsedge, Yellow [9, 22]: 0
- Plant response rating, Nutsedge, Yellow [9, 23]: 5
- Plant response rating, Pigweed [10, 16]: 98
- Plant response rating, Pigweed [10, 17]: 98
- Plant response rating, Pigweed [10, 18]: 100
- Plant response rating, Pigweed [10, 24]: 100
- Plant response rating, Pigweed [10, 20]: 100
- Plant response rating, Pigweed [10, 21]: 100
- Plant response rating, Pigweed [10, 22]: 100
- Plant response rating, Pigweed [10, 23]: 100
- Plant response rating, Soybean (soybean (Glycine max); [16]): 40
- Plant response rating, Soybean (soybean (Glycine max); [17]): 45
- Plant response rating, Soybean (soybean (Glycine max); [18]): 45
- Plant response rating, Soybean (soybean (Glycine max); [24]): 55
- Plant response rating, Soybean (soybean (Glycine max); [20]): 5
- Plant response rating, Soybean (soybean (Glycine max); [21]): 10
- Plant response rating, Soybean (soybean (Glycine max); [22]): 40
- Plant response rating, Soybean (soybean (Glycine max); [23]): 40
- Plant response rating, Velvetleaf [11, 16]: 55
- Plant response rating, Velvetleaf [11, 17]: 80
- Plant response rating, Velvetleaf [11, 18]: 85
- Plant response rating, Velvetleaf [11, 24]: 90
- Plant response rating, Velvetleaf [11, 20]: 60
- Plant response rating, Velvetleaf [11, 21]: 80
- Plant response rating, Velvetleaf [11, 22]: 100
- Plant response rating, Velvetleaf [11, 23]: 100

SMILES: CCOc1nn(-c2ccc(Br)cc2)nc1Cc1ccnc(C(F)(F)F)c1 [Compound 189]
- Plant response rating, Crabgrass, Large [1, 12]: 80
- Crabgrass, Large plant response rating [1, 13]: 90
- Plant response rating, Crabgrass, Large [1, 14]: 100
- Plant response rating, Crabgrass, Large [1, 15]: 100
- Plant response rating, Foxtail, Giant [2, 12]: 90
- Foxtail, Giant plant response rating [2, 13]: 90
- Plant response rating, Foxtail, Giant [2, 14]: 100
- Plant response rating, Foxtail, Giant [2, 15]: 100
- Plant response rating, Velvetleaf [3, 12]: 70
- Velvetleaf plant response rating [3, 13]: 90
- Plant response rating, Velvetleaf [3, 14]: 20
- Plant response rating, Velvetleaf [3, 15]: 60
- Plant response rating, Blackgrass [4, 25]: 75
- Plant response rating, Blackgrass [4, 20]: 90
- Plant response rating, Blackgrass [4, 21]: 100
- Plant response rating, Blackgrass [4, 22]: 100
- Plant response rating, Wheat [5, 25]: 0
- Plant response rating, Wheat [5, 20]: 5
- Plant response rating, Wheat [5, 21]: 15
- Plant response rating, Wheat [5, 22]: 30
- Plant response rating, Galium [6, 25]: 80
- Plant response rating, Galium [6, 20]: 80
- Plant response rating, Galium [6, 21]: 80
- Plant response rating, Galium [6, 22]: 95
- Plant response rating, Foxtail, Giant [7, 25]: 100
- Plant response rating, Foxtail, Giant [7, 20]: 100
- Plant response rating, Foxtail, Giant [7, 21]: 100
- Plant response rating, Foxtail, Giant [7, 22]: 100
- Plant response rating, Lambsquarters [8, 25]: 45
- Plant response rating, Lambsquarters [8, 20]: 85
- Plant response rating, Lambsquarters [8, 21]: 90
- Plant response rating, Lambsquarters [8, 22]: 90
- Plant response rating, Nutsedge, Yellow [9, 25]: 0
- Plant response rating, Nutsedge, Yellow [9, 20]: 0
- Plant response rating, Nutsedge, Yellow [9, 21]: 0
- Plant response rating, Nutsedge, Yellow [9, 22]: 0
- Plant response rating, Pigweed [10, 25]: 85
- Plant response rating, Pigweed [10, 20]: 98
- Plant response rating, Pigweed [10, 21]: 100
- Plant response rating, Pigweed [10, 22]: 100
- Plant response rating, Soybean (soybean (Glycine max); [25]): 5
- Plant response rating, Soybean (soybean (Glycine max); [20]): 5
- Plant response rating, Soybean (soybean (Glycine max); [21]): 15
- Plant response rating, Soybean (soybean (Glycine max); [22]): 25
- Plant response rating, Velvetleaf [11, 25]: 10
- Plant response rating, Velvetleaf [11, 20]: 15
- Plant response rating, Velvetleaf [11, 21]: 40
- Plant response rating, Velvetleaf [11, 22]: 60
